Experimental findings from US7915297B2, “Isoxazole derivatives and use thereof” (SK Holdings Co., Ltd., priority 2005, dated 2011) are described below.

Test [1] concerns ST-2, a murine bone marrow stromal T cell. As to the kind of experiment: Differentiation of ST2 cell line into osteoblasts, alkaline phosphatase activity. The class given is cell-based. Particulars: Mus musculus, 96 h; ST-2 cells, 11 μM compound, 4 days; control treated only with ascorbic acid and β-glycerolphosphate = 100; read-out: ALP Activity (% Control). As to the method: The derivatives synthesized according to the present invention were assayed for their ability to differentiate stem cells into osteoblasts. In this regard, ST-2, a murine bone marrow stromal T cell, was used to measure the activity of bone-specific alkaline phosphatase, a marker of early-stage osteoblast differentiation. In detail, the cell line was cultured in an MEM supplemented with penicillin-streptomycin (100 Units/mL) and heat-inactivated 5% fetal bovine serum under standard culture conditions (5% CO2, 37° C., 100% relative humidity). […] The suspension was diluted with the same medium to adjust the cell count to 5,000˜10,000 cells per well, and was moved in a 96-well microtiter, subsequently. After being incubated for 24 hrs, the cells were treated in a medium containing 50 μg/ml of ascorbic acid and 5 mM of β-glycerolphosphate with various concentrations of the isoxazole derivatives synthesized in Preparation Examples. During incubation for one to nine days, the Alkaline phosphatase activity was analyzed using a […] Assay kit (Promega, U.S.A.) according to the protocol described in the manual provided by the manufacturer. The activities were measured in cells which had been incubated at 11 μM of each of the compounds for 4 days. Data on the activities of the isoxazole derivatives synthesized are given in Tables 44 to 47 and are expressed as percentages of ALP relative to that measured in the control, which was treated only with ascorbic acid and β-glycerolphosphate. ALP activities according to the concentrations of Derivative (1) are depicted in FIG. 5.

For test [2], the system named is Wnt/β-catenin signaling (β-catenin activity) in HEK293 cell line. Kind of test: Cell-based Wnt agonist screening, TCF luciferase reporter, HEK293 (TCF-FL). More on the design: species or system human. The note with it: Homo sapiens, HEK293, 24 h, % of LiCl (20 mM), 24 h, read-out: Max. Activity (%); for Emax at 120 µM: Conc. 120 μM; for Emax at 30 µM: Conc. 30 μM; for Emax at 10 µM: Conc. 10 μM. A digest of the protocol:
(§1)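 HEK293 and SW480 lines stably carried a 5X TCF firefly luciferase reporter under G418 selection. Cells (8,000–15,000/well, RPMI 1640 with 5% FBS) were grown 24 h, then treated with compound for 24 h. Luciferase activity was expressed as percent of the 20 mM LiCl positive control.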
On the technique in general: Reporter assays use an easily measured gene product as a stand-in for the process of interest.

For test [3], the system named is Wnt/β-catenin signaling (β-catenin activity) in SW480 cell line. As to the kind of experiment: Cell-based Wnt agonist screening, TCF luciferase reporter, SW480 (TCF-FL). More on the design: species or system human. The note with it: Homo sapiens, % of LiCl (20 mM), 24 h, read-out: Max. Activity (%); for Emax at 120 µM: Con. 120 μM; for Emax at 30 µM: Con. 30 μM; for Emax at 10 µM: Con. 10 μM. A digest of the protocol: as §1

On to `Cc1nccn1CCNC(=O)c1cc(-c2ccco2)on1` [Derivative (35), 5-furan-2-yl-isoxazole-3-carboxylic acid [2-(2-methyl-imidazol-1-yl)-ethyl]-amide], for which the activity at 11 µM in test [1] came to 686%. The results for the Emax at 120 µM in test [2] and in test [3] were 35% and 130%, respectively.
With `COc1ccc(CCNC(=O)c2cc(-c3ccco3)on2)cc1` [Derivative (21), 5-furan-2-yl-isoxazole-3-carboxylic acid [2-(4-methoxy-phenyl)-ethyl]-amide], in test [1], the activity at 11 µM is 334%. Also, the Emax at 30 µM in test [2] is 23%; in test [3] it was 287%.
On the same counts, the results for `Cc1ccc(CCNC(=O)c2cc(-c3ccco3)on2)cc1` [Derivative (15), 5-furan-2-yl-isoxazole-3-carboxylic acid (2-p-tolyl-ethyl)-amide] are 278%, below 20% and below 20%.
On the same counts, the results for `O=C(NCCn1ccnc1)c1cc(-c2ccc(F)cc2)on1` [Derivative (86), 5-(4-fluoro-phenyl)-isoxazole-3-carboxylic acid (2-imidazol-1-yl-ethyl)-amide] are 546%, below 20% and below 20%.
Take `COc1ccc(-c2cc(C(=O)NCCc3ccncc3)no2)cc1` [Derivative (102), 5-(4-methoxy-phenyl)-isoxazole-3-carboxylic acid (2-pyridin-4-yl-ethyl)-amide]: the activity at 11 µM in test [1] was found to be 148%. Moreover, the Emax at 120 µM in test [2] and in test [3] was 73% in each case.
In the case of `COc1ccccc1-c1cc(C(=O)NCCc2ccncc2)no1` [Derivative (104), 5-(2-methoxy-phenyl)-isoxazole-3-carboxylic acid (2-pyridin-4-yl-ethyl)-amide], in test [1], the activity at 11 µM came to 103%. Moreover, the Emax at 30 µM in test [2] was determined as 35%. The Emax at 60 µM in test [2] (Conc. 60 μM) and in test [3] (Con. 60 μM) was 884% in each case.
For `O=C(NCCc1ccc(O)c(O)c1)c1cc(-c2ccco2)on1` [Derivative (28), 5-furan-2-yl-isoxazole-3-carboxylic acid [2-(3,4-dihydroxy-phenyl)-ethyl]-amide], in test [1], the activity at 11 µM came out at 436%. Besides, the Emax at 30 µM in test [2] and in test [3] was below 20% each time.
With `COc1cccc(-c2cc(C(=O)NCCc3ccncc3)no2)c1` [Derivative (103), 5-(3-methoxy-phenyl)-isoxazole-3-carboxylic acid (2-pyridin-4-yl-ethyl)-amide], the activity at 11 µM in test [1] stood at 103%. Besides, the Emax at 10 µM in test [2] and in test [3] was 42% in each case.
Consider `O=C(NCCn1ccnc1)c1cc(-c2ccccc2F)on1` [Derivative (85), 5-(2-fluoro-phenyl)-isoxazole-3-carboxylic acid (2-imidazol-1-yl-ethyl)-amide], for which the activity at 11 µM in test [1] came to 640%. Moreover, the Emax at 30 µM in test [2] and in test [3] was below 20% in each case.
As to `O=C(NCCCn1cncn1)c1cc(-c2ccc(Cl)cc2)on1` [Derivative (96), 5-(4-chloro-phenyl)-isoxazole-3-carboxylic acid (3-[1,2,4]triazol-1-yl-propyl)-amide], the activity at 11 µM in test [1] was 97%. Besides, the Emax at 120 µM in test [2] and in test [3] was 80% in each case.
With `Cc1cncn1CCNC(=O)c1cc(-c2ccco2)on1` [Derivative (36), 5-furan-2-yl-isoxazole-3-carboxylic acid [2-(5-methyl-imidazol-1-yl)-ethyl]-amide], in test [1], the activity at 11 µM was found to be 396%. In addition, the Emax at 120 µM came out at 71% in test [2] and 283% in test [3].
With `O=C(NCCn1cccn1)c1cc(-c2ccc(F)cc2)on1` [Derivative (87), 5-(4-fluoro-phenyl)-isoxazole-3-carboxylic acid (2-pyrazol-1-yl-ethyl)-amide], the activity at 11 µM in test [1] was 428%. Also, the Emax at 30 µM in test [2] and in test [3] was below 20% in each case.
On to `O=C(NCCn1cncn1)c1cc(-c2ccc(Cl)cc2)on1` [Derivative (97), 5-(4-chloro-phenyl)-isoxazole-3-carboxylic acid (2-[1,2,4]triazol-1-yl-ethyl)-amide], for which, in test [1], the activity at 11 µM stood at 91%. Besides, the Emax at 10 µM in test [2] and in test [3] was 53% in each case.
Consider `O=C(NCCCn1ccnc1)c1cc(-c2ccc(Cl)cc2)on1` [Derivative (98), 5-(4-chloro-phenyl)-isoxazole-3-carboxylic acid (3-imidazol-1-yl-propyl)-amide], for which the activity at 11 µM in test [1] is 90%. The Emax at 120 µM in test [2] and in test [3] was 54% in each case.
`COc1ccc(-c2cc(C(=O)NCCCn3ccnc3)no2)cc1` [Derivative (101), 5-(4-methoxy-phenyl)-isoxazole-3-carboxylic acid (3-imidazol-1-yl-propyl)-amide]: the activity at 11 µM in test [1] came out at 592%. In addition, the Emax at 120 µM in test [2] and in test [3] was 205% each time.
For the compound `O=C(CNC(=O)c1cc(-c2ccco2)on1)c1ccccc1` [Derivative (205), 5-furan-2-yl-isoxazole-3-carboxylic acid (2-oxo-2-phenyl-ethyl)-amide], the activity at 11 µM in test [1] came to 58%. In addition, in test [3], the Emax at 10 µM stood at 59%.
As for `O=C(NCCCn1ccnc1)c1cc(-c2ccc([N+](=O)[O-])cc2)on1` [Derivative (114), 5-(4-nitro-phenyl)-isoxazole-3-carboxylic acid (3-imidazol-1-yl-propyl)-amide], the activity at 11 µM in test [1] worked out at 339%. Further, the Emax at 1 µM in test [2] (Conc. 1 μM) and in test [3] (Con. 1 μM) was 31% throughout.
Take `Cc1cccnc1N1CCN(CCNC(=O)c2cc(-c3ccco3)on2)CC1` [Derivative (190), 5-furan-2-yl-isoxazole-3-carboxylic acid {2-[4-(3-methyl-pyridin-2-yl)-piperazin-1-yl]-ethyl}-amide]: the activity at 11 µM in test [1] turned out to be 269%. Also, in test [3], the Emax at 120 µM was found to be 372%.
On the same counts, the results for `O=C(NCCn1cncn1)c1cc(N2CCOCC2)on1` [Derivative (163), 5-morpholin-4-yl-isoxazole-3-carboxylic acid (2-[1,2,4]-triazol-1-yl-ethyl)-amide] are 166% and 34%.
`COc1ccc(NCCNC(=O)c2cc(-c3ccco3)on2)cc1` [Derivative (200), 5-furan-2-yl-isoxazole-3-carboxylic acid [2-(4-methoxy-phenylamino)-ethyl]-amide]: the activity at 11 µM in test [1] is 162%. The Emax at 30 µM in test [3] amounted to 106%.
